# According to patent publication US20250051337A1 (priority 2021, published 2025):
# pIC50: −log10 of the molar value. Like-named read-outs stand apart in the source and are kept apart here.
# Columns and labels:
# Kinetic solubility = type: physicochemical
# Source text: Data is represented as an average of a single experiment preformed in duplicate. Atenolol was used as an internal standard.
# [1] = In vivo plasma and liver concentrations, 20 mg/kg intraperitoneal; details: female, C57BL/6J, mouse, ip
# Method: All animal procedures were approved by the Sanford Burnham Prebys Medical Discovery Institute Institutional Animal Care and Use Committee and were performed according to the NIH guidelines for the Care and Use of Laboratory Animals. Adult female C57BL/6J mice were purchased from Jackson Laboratories and housed with free access to food and water on a 12 h light/dark cycle. Compounds were formulated in 5% DMSO, 10% Tween-80, and 85% H2O and injected intraperitoneally at 10 or 20 mg/kg. Blood samples were collected retro-orbitally at the indicated times and plasma was prepared by centrifugation. Livers were collected post mortem at the indicated times.
# For quantification of compound, plasma samples were extracted with acetonitrile: water 4:1 with 0.1% formic acid containing indomethacin as an internal standard. Samples were centrifuged and the supernatants were diluted with acetonitrile: water and analyzed by LC-MS/MS using a Shimadzu Nexera X2 High-performance liquid chromatography (HPLC) (Shimadzu Scientific Instruments: Kyoto, Japan) coupled to an AB Sciex 6500 QTRAP (AB Sciex LLC: Toronto, Canada).
# Adult female C57BL/6 mice (n=3/group) were intraperitoneally injected with vehicle or test compound (20 mg/kg), and blood samples and livers were collected at 30 min and 1 h post-injection, respectively. Plasma concentrations of all 13 compounds were >1.4 μM at 30 min after injection, and 10 compounds had liver concentrations >1.0 μM at 1 h after injection, as measured by LC-MS/MS, with particularly high plasma concentrations obtained with compounds 11 (15.9 μM), 16 (11.6 μM) and 105 (8.7 μM) (Table 5). To evaluate target engagement in vivo, the total and phosphorylated MOB1 levels in livers collected at 1 h post-injection was examined.
# Tween 80 and water and were administered to mice by intraperitoneal injection. Blood samples and livers were collected at 30 min and 1 h post-dose, respectively. Plasma concentrations and relative pMOB1 levels were determined by LC-MS/MS and western blot analysis, respectively. (n=3).
# STK4 [2] = target: T1, STK4 (Homo sapiens (Human), UniProt Q13043); assay: ADP-Glo kinase assay, STK4; type: biochemical; details: ADP-Glo, 50 μM ATP; read-out: STK4 IC50
# T1 sequence (Q13043 whole entry): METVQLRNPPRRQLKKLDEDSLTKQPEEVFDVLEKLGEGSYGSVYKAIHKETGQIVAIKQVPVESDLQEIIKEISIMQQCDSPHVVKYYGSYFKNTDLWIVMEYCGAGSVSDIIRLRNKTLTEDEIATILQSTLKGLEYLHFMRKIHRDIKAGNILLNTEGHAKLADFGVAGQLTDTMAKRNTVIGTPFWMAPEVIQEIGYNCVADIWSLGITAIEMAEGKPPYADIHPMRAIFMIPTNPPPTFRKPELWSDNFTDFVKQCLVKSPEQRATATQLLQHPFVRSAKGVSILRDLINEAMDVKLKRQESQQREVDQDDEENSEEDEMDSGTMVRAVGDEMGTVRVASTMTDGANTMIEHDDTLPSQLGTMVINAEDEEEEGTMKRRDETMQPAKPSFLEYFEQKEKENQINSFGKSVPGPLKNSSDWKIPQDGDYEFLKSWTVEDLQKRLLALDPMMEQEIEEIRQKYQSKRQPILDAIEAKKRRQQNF
# Outline: (§1)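 Full-length recombinant human STK3 (50 ng) phosphorylated 250 μg/mL myelin basic protein, and full-length STK4 (50 ng) phosphorylated 300 μg/mL Axltide, both at 50 μM ATP; ADP formed detected by ADP-Glo. Three experiments, each in triplicate.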
# STK4 [3] = target: T1, STK4; assay: NanoBRET intracellular kinase assay, STK4; type: cell-based; details: transfected HEK293 cells, 2 h
# Method: (§2) Full-length STK3, STK4, and LRRK2 kinase was cloned in-frame with a C-terminal NanoLuc-fusion (Promega: Madison, WI, USA) and the plasmid was transfected into HEK293T cells using FuGENE HD (Promega, E2312). […] After 2 h at 37° C. in a 5% CO2 atmosphere, NanoBRET NanoGlo Substrate+Extra-cellular NanoLuc Inhibitor (Promega, N2540) was added, and filtered luminescence was measured on a PHERAstar plate reader (BMG Labtech; Ortenberg, Germany) equipped with a lumi-nescence filter pair (450 nm BP filter (donor) and 610 nm LP filter (acceptor)).
# (§3) This assay measured the apparent affinity of test compounds by competitive displacement of the NanoBRET™ tracer, reversibly bound to a NanoLuc® luciferase-kinase fusion in cells. To evaluate potential off-target activity of the inhibitors, the inhibition of LRRK2 in live cells by the STK3/4 inhibitors compounds described herein were measured. […] A 50 nM tracer and these compounds were added to cells and incubated for 2 h.
# STK3 [4] = target: T2, STK3 (Homo sapiens (Human), UniProt Q13188); assay: Thermal shift assay (ThermoFluor differential scanning fluorimetry); type: binding; details: for ΔTm at 10 µM: read-out: ΔTm; for Tm shift: Tm of STK3 or STK4, text statement
# T2 sequence (Q13188 whole entry): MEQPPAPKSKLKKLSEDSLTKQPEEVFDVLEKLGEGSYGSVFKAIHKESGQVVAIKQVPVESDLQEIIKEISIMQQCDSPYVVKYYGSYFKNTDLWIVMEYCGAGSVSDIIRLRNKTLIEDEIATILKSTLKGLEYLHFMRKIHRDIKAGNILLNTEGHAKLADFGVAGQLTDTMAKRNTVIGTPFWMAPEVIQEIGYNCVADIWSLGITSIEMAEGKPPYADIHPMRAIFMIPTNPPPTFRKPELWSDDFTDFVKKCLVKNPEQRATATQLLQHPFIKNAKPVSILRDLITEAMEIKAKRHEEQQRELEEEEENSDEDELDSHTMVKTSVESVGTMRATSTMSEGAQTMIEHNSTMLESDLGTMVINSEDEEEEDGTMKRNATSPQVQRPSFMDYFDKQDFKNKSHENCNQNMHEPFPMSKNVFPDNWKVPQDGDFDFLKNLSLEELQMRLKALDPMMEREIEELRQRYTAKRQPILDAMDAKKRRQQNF
# Method: Temperature-dependent protein unfolding profiles were measured using a Real-Time PCR Mx3005p machine (Stratagene: San Diego, CA, USA). Data evaluation and melting temperature calculation were performed using Protein Thermal Shift™ Software v1.2.
# To further evaluate binding of these compounds to STK3/4, differential scanning fluorimetry (protein thermal shift using ThermoFluor technology) assay was used to benchmark the capacity to stabilize the kinase domain. The melting temperature (Tm) of STK3 or STK4 was measured in the presence of vehicle (DMSO) or 6, 11 or 23.
# STK3 [5] = target: T2, STK3; assay: NanoBRET intracellular kinase assay, STK3; type: cell-based; details: NanoBRET, transfected HEK293 cells, 2 h; read-out: STK3: IC50
# Method: as §2, §3
# STK3 [6] = target: T2, STK3; assay: ADP-Glo kinase assay, STK3; type: biochemical; details: ADP-Glo, 50 μM ATP; read-out: STK3 IC50
# Outline: as §1
# [7] = tested on: phosphorylated MOB1 (Thr35) in HEK293 cells; assay: Western blot analysis of p-MOB1 in HEK293 cells; type: cell-based; details: 10 μM, 4 h, then H2O2 50 μM 2 h, vs DMSO
# Method: Cells were harvested by pipetting, pelleted by centrifugation at 1400 rpm for 4 min, and lysed in RIPA buffer for 10 min at room temperature. The lysates were centrifuged at 12,000×g at room temperature (RT) for 10 min and the supernatants were recovered. Protein concentrations in the supernatants were determined using a BCA assay (Pierce/Thermo Scientific). Proteins were separated on NovexTM WedgeWellTM 4-20% Tris-Glycine Gels (Invitrogen; Carlsbad, CA, USA) and transferred to polyvinylidene difluoride (Trans-Blot® TurboTM Transfer Pack) membranes. […] Danvers. MA. USA). Blots were rinsed three times with TBST and then incubated in 5% nonfat milk containing horseradish peroxidase (HRP)-conjugated mouse anti-rabbit IgG secondary Ab (Cell Signaling Technology) for 1 h at RT. Blots were washed three times with TBST, developed using Pierce® ECL Western Blotting reagent, and imaged and analyzed using with ImageJ software. Quantitative data are expressed as the level of phosphorylated MOB1 normalized to total MOB1. To confirm that the cellular mechanism of action of our inhibitors was through inhibition of Hippo pathway signaling. […] Inhibition of STK3/4 in vitro and in vivo can produce decreased phosphorylation of the Hippo pathway adapter protein MOB1 at […].
# [8] = FaSSGF, fassgf or other biorelevant, kinetic from dmso stock, FaSSGF, read-out: Solubility, FASSGF
# [9] = FaSSIF, kinetic from dmso stock, FaSSIF, read-out: Solubility, FaSSIF
# [10] = PBS pH 7.4, pH 7.4, aqueous buffer, kinetic from dmso stock, PBS pH 7.4, read-out: Solubility, Buffer (pH = 7.4)
# [11] = mice, 20 mg/kg intraperitoneal, 30 min post-dose, read-out: Plasma concentration
smiles,measurement,setting,value
"Clc1cccc(-c2c[nH]c3ncnc(N4CCOCC4)c23)c1 [Compound 6, 4-(5-(3-Chlorophenyl)-7H-pyrrolo[2,3-d]pyrimidin-4-yl)morpholine]",solubility,Kinetic solubility; [8],353 µM
same,solubility,Kinetic solubility; [9],35.7 µM
same,solubility,Kinetic solubility; [10],9.2 µM
same,concentration at 30 min,[1]; 20 mg/kg,6.9 µM
same,concentration at 1 h,[1]; 20 mg/kg,15.3 µM
same,pIC50,STK4 [2],> 6.00
same,pIC50,STK4 [3],> 6.00
same,ΔTm at 10 µM,STK3 [4],8.1 °C
"NC(=O)c1cccc(-c2c[nH]c3ncnc(N4CCOCC4)c23)c1 [Compound 11, 3-(4-Morpholino-7H-pyrrolo[2,3-d]pyrimidin-5-yl)benzamide]",solubility,Kinetic solubility; [8],430 µM
same,solubility,Kinetic solubility; [9],136 µM
same,solubility,Kinetic solubility; [10],145 µM
same,concentration at 1 h,[1]; 20 mg/kg,23.2 µM
same,concentration at 30 min,[1]; [11],15.9 µM
same,pIC50,STK3 [5],> 6.00
same,ΔTm at 10 µM,STK3 [4],7.4 °C
same,pIC50,STK3 [6],> 6.00
"OC1CCN(c2ncnc3[nH]cc(-c4cccc(Cl)c4)c23)CC1 [Compound 16, 1-(5-(3-Chlorophenyl)-7H-pyrrolo[2,3-d]pyrimidin-4-yl)piperidin-4-ol]",solubility,Kinetic solubility; [8],352 µM
same,solubility,Kinetic solubility; [9],294 µM
same,solubility,Kinetic solubility; [10],189 µM
same,solubility,"Kinetic solubility; PBS pH 7.4, read-out: Solubility, Buffer (pH = 7.4)",188.5 µM
same,concentration at 1 h,[1]; 20 mg/kg,5.9 µM
same,concentration at 30 min,[1]; [11],11.6 µM
same,relative expression level of phosphorylated MOB1,[7],significant reduction
same,pIC50,STK4 [2],> 6.00
same,pIC50,STK4 [3],> 6.00
same,pIC50,STK3 [5],> 6.00
same,Tm shift,STK3 [4],comparable results
same,ΔTm at 10 µM,STK3 [4],8 °C
same,pIC50,STK3 [6],> 6.00
"Clc1cccc(-c2c[nH]c3nccc(N4CCOCC4)c23)c1 [Compound 23, 4-(3-(3-chlorophenyl)-1H-pyrrolo[2,3-b]pyridin-4-yl)morpholine]",solubility,Kinetic solubility; [8],372 µM
same,solubility,Kinetic solubility; [9],7 µM
same,solubility,Kinetic solubility; [10],< 0.6 µM
same,concentration at 30 min,[1]; 20 mg/kg,7.1 µM
same,concentration at 1 h,[1]; 20 mg/kg,16.6 µM
same,relative expression level of phosphorylated MOB1,[7],significant reduction
same,pIC50,STK4 [2],> 6.00
same,pIC50,STK4 [3],> 6.00
same,pIC50,STK3 [5],> 6.00
same,Tm shift,STK3 [4],> 7.4 °C
same,ΔTm at 10 µM,STK3 [4],7.9 °C
same,pIC50,STK3 [6],> 6.00
"CC(=O)NC1CCN(c2ncnc3[nH]cc(-c4cccc(Cl)c4)c23)CC1 [Compound 105, N-(1-(5-(3-chlorophenyl)-7H-pyrrolo[2,3-d]pyrimidin-4-yl)piperidin-4-yl)acetamide]",concentration at 30 min,[1]; 20 mg/kg,8.7 µM
same,concentration at 1 h,[1]; 20 mg/kg,4.6 µM
same,relative expression level of phosphorylated MOB1,[7],significant reduction
same,pIC50,STK4 [2],> 6.00
same,pIC50,STK4 [3],> 6.00
same,pIC50,STK3 [5],> 6.00
same,pIC50,STK3 [6],> 6.00
